Experimental findings from BindingDB's records for doi:10.7270/Q2J38R0R (Burnham Center For Chemical Genomics, 2010) are described below.

For the test, the target named is Intestinal-type alkaline phosphatase (Mus musculus, UniProt P24822). Put plainly: mouse intestinal alkaline phosphatase activators, dose response, biochemical, luminescence, uHTS hits (AID 488783).
Sequence of Intestinal-type alkaline phosphatase (P24822 whole entry, looked up): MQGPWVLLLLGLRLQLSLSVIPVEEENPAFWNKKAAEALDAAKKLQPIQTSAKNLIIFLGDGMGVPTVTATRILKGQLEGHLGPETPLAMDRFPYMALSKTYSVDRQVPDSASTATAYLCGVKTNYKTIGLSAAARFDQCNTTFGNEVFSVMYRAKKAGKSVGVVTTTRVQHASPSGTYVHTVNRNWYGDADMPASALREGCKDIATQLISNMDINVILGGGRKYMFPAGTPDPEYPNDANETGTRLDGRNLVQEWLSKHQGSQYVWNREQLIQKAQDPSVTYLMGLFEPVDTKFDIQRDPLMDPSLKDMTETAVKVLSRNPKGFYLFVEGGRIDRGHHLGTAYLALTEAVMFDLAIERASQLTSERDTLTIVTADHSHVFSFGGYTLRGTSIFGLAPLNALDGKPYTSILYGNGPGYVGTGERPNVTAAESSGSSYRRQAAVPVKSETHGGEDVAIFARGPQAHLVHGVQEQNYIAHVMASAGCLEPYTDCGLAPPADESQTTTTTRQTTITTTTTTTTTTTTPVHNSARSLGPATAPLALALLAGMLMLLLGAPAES
`Cc1cc(=O)[nH]c(N=NCc2ccc(O)c(O)c2)n1` [MLS001194906]: the EC50 (commonly the concentration at which the effect is half-maximal) stood at 58.7 µM. The compound `O=C1CC(=O)c2c(O)cc(O)c(O)c2C1=O` [4,5,7,8-tetrahydroxy-1,2-naphthoquinone] gave an EC50 of 9.93 µM. `CN(CCO)c1ccc(CN=Nc2ccc([N+](=O)[O-])cc2S(=O)(=O)Nc2ccccc2C(=O)O)cc1` gave an EC50 of 17.5 µM.

`O=C(NN=CC1=CC(=O)C(=O)CC1)NN=CC1=CC(=O)C(=O)CC1` [1,3-bis[[(Z)-(3-hydroxy-4-oxocyclohexa-2,5-dien-1-ylidene)methyl]amino]urea] displayed an EC50 of 4.96 µM.
